Data reported in publication PMC6358602, “The catalytic activity and secretion of zebrafish RNases are essential for their in vivo function in motor neurons and vasculature” (Scientific Reports, 2019).

Target: T1, human angiogenin (hANG) (Homo sapiens, UniProt P03950)
T1 construct: gene ANG; [Met−1]-form
Experiment: fluorogenic RNase activity assay with and without NCI-65828 (Fig. 1E)
Format: biochemical

T1 sequence (P03950 25-147): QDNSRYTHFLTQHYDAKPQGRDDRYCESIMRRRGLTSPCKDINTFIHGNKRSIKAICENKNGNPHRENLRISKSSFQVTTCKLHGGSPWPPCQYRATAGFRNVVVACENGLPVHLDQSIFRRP

Q: With Nc1ccc(/N=N/c2ccc(-c3ccc(O)cc3)cc2)c2ccc(S(=O)(=O)O)cc12 [NCI-65828, 8-amino-5-(4′-hydroxybiphenyl-4-azo) napathlene-2-sulphate] as the compound, how does the “fluorogenic RNase activity assay with and without NCI-65828 (Fig. 1E)” value read?
A: The value was “Enzyme kinetic data for Rnasel and hANG native protein and in the presence of NCI-65828”.
